This experiment concerns the target Cystathionine gamma-lyase (Homo sapiens, UniProt P32929). Description: CSE In Vitro Assay.

By IC50 is commonly meant the point on the concentration scale where inhibition reaches its midpoint.

A value given as a limit tells only on which side of the number the result lay.

Cystathionine gamma-lyase, sequence (P32929 whole entry): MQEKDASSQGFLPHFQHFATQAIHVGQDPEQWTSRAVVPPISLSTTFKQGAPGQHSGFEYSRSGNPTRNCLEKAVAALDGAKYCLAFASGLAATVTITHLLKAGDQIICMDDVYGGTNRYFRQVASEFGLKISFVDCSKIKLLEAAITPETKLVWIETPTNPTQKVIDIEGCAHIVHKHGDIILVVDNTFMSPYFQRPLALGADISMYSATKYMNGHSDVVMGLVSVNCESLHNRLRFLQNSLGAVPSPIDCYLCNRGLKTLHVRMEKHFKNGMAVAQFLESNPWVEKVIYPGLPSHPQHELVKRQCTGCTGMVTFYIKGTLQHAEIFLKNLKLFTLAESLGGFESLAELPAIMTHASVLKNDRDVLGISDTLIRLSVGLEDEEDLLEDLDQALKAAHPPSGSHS

As for `C#CC[C@H](N)c1nnn[nH]1` [US10227314, Example 2], the IC50 is < 25 µM.

On to `N#CCC(N)c1nnn[nH]1` (configuration not stated) [US10227314, Example 1], for which the half-inhibitory concentration (IC50) is > 100 µM.
